{"source": "patent US20240401146A1", "about": "“METHODS FOR PREDICTING AND IMPROVING THE EFFICACY OF MCL-1 INHIBITOR THERAPY” (INSTITUT NATIONAL DE LA SANTÉ ET DE LA RECHERCHE MÉDICALE, priority 2021, published 2024)", "key": {"[1]": {"test_system": "SUDHL-4 cells (BTG1 KO, BTG1 WT)", "conditions": "SUDHL-4 BTG1 KO versus BTG1 WT; 72 h exposure; 0 or 50 nM; FIG. 3C", "procedure": "(§1) TMD8 and SUDHL-4 were grown in Roswell Park Memorial Institute medium, GlutaMAX Supplement ([…], Thermofisher), supplemented with 10% FBS, 1% penicillin G/streptomycin. Cells were grown in incubators at 37 C, in a 5% CO2 atmosphere.\n(§2) TMD8 and SUDHL-4 cells expressing cas9 were generated by transduction with lentiV-Cas9-blast virus (Addgene #125592, Massachusetts, USA), and selected with 2.5 μg/ml blasticidin for 7 days. […] Cells were selected with puromycin for 7 days, and GFP expression was evaluated with flow cytometry. BTG1 inactivation was validated by Western Blotting after 1 week. BTG1 rescue cell were derived from TMD8 BTG1 KO cells infected with murine BTG1 cDNA (100% protein homology with human) in a mcherry-HIV-based virus. GFP and mcherry positive cells were sorted on a FACS ARIA™ cell sorter (BD biosciences, San Jose, CA).\n(§3) The high affinity MCL-1 specific inhibitor S63845 (Kotschy et al., 2016) was purchased from Selleck Chemical (München, Germany). For in vitro study, it was dissolved in DMSO at a concentration of lmmol/L. DMSO was also used as a vehicle control in the in vitro study. For cell viability assessment, 100 000 cells were seeded in 24 well plate and incubated for 72 h with either S63845 or DMSO. Culture medium was used for further dilutions (typically 5 and 50 nM). For cell viability assessment, cells were stained with Annexin V-APC and propidium iodide, analyzed on a FACS LSRII™ (BD biosciences, San Jose, CA)."}, "[2]": {"test_system": "TMD8 cells (BTG1 KO, WT, rescue, mutated rescues)", "conditions": "72 h exposure, 0 or 50 nM, FIG. 3B", "procedure": "as §1, §2, §3"}}, "note": "Read-outs that look alike come from different tables or passages of the source."}
{"smiles": "Cc1c(-c2c(-c3ccc(F)o3)sc3ncnc(O[C@H](Cc4ccccc4OCc4ccnn4CC(F)(F)F)C(=O)O)c23)ccc(OCCN2CCN(C)CC2)c1Cl", "note": "[S63845]", "values": [{"measurement": "Proportion of apoptotic cells (Annexin V staining)", "setting": "[1]", "value": "confirmed the link between BTG1 inactivation and sensitivity to MCL-1"}, {"measurement": "Increased sensitivity to MCL-1 inhibitor (proportion of apoptotic cells, Annexin V staining)", "setting": "[2]; TMD8 BTG1 KO rescued with BTG1 WT", "value": "abolished by the expression of BTG1 WT"}, {"measurement": "Increased sensitivity to MCL-1 inhibitor (proportion of apoptotic cells, Annexin V staining)", "setting": "[2]; TMD8 BTG1 KO rescued with mutated BTG1 (L26P, G66D or I115V)", "value": "not by the expression of mutated BTG1"}, {"measurement": "Proportion of apoptotic cells (Annexin V staining)", "setting": "[2]; TMD8 BTG1 KO versus BTG1 WT", "value": "induces significantly more apoptosis"}]}
